Data reported in US4595688A, “Hexahydropyrrolo[2,1-a]isoquinoline derivatives and antidepressant use thereof” (priority 1984, dated 1986).
Where two headings read alike, the source gives them in different places.

System: depressant effects of tetrabenazine (TBZ)
Assay: tetrabenazine (TBZ) antagonism assay in mice: exploratory activity (EA) and reversal of ptosis (Pt)
Assay type: in vivo
Settings: for ED50: Mus musculus, ip; for percent inhibition at a certain dose, EA (exploratory activity): TBZ 32 mg/kg i.p.
Description: The utility of the novel compounds of this patent is based on a standard test for antidepressant agents involving antagonism of the depressant effects of tetrabenazine (TBZ). This is the "classical" tetrabenazine antagonism assay described in U.S. Pat. No. 3,787,577. In this test, mice are injected with a test compound 30 minutes prior to the injection of 32 mg/kg i.p. of TBZ, a drug which decreases normal exploratory activity and induces ptosis. After 30 minutes, the mice are tested for two parameters: the presence of normal exploratory activity (EA) and reversal of ptosis (Pt). A control group of mice is given only 32 mg/kg i.p. of TBZ. The biological activity of the novel compounds of this invention may be understood by some representative, nonlimiting examples, presented in Tables I and II.
Tables I lists the compounds tested by a compound number, structural formula, HX or acid addition salt form in which the compound was tested, test data, and internal code number (McN No.). Table II names the various Table I compounds.
*ED50 given in mg/kg for each parameter (except for percent
inhibition at a certain dose in mg/kg, given for four examples: XLIV, XLV

[1] = mice, i.p., compound 30 minutes prior to 32 mg/kg i.p. TBZ, normal exploratory activity, read-out: TBZ ED50, EA (exploratory activity)
[2] = mice, i.p., compound 30 minutes prior to 32 mg/kg i.p. TBZ, reversal of ptosis, read-out: TBZ ED50, Pt (reversal of ptosis)
[3] = read-out: TBZ ED50, EA (exploratory activity)
[4] = read-out: TBZ ED50, Pt (reversal of ptosis)
[5] = mice, i.p., compound 30 minutes prior to 32 mg/kg i.p. TBZ, normal exploratory activity
[6] = mice, i.p., compound 30 minutes prior to 32 mg/kg i.p. TBZ, reversal of ptosis

Row | SMILES | ED50 [1] | ED50 [2] | other results
1 | COc1cccc([C@@H]2CN3CCC[C@@H]3c3ccccc32)c1 (relative stereo) [Compound XL, 1,2,3,5,6,10bβ-Hexahydro-6α-(3-methoxyphenyl)pyrrolo[2,1-a]isoquinoline] | ~0.17 mg/kg | ~0.07 mg/kg | 
2 | Oc1cccc([C@@H]2CN3CCC[C@@H]3c3ccccc32)c1 (relative stereo) [Compound XLI, 3-(1,2,3,5,6,10bβ-Hexahydropyrrolo[2,1-a]isoquinolin-6α-yl)phenol] | > 10 mg/kg | 0.11 mg/kg | 
3 | Clc1ccc([C@@H]2CN3CCC[C@H]3c3cc(Cl)ccc32)cc1 (relative stereo) [Compound XLII, [6α,10bα]-9-Chloro-6-(4-chlorophenyl)-1,2,3,5,6,10b-hexahydropyrrolo[2,1-a]isoquinoline] | 100 mg/kg | 37 mg/kg | 
4 | C[C@]12CCCN1C[C@@H](c1ccccc1)c1ccccc12 (relative stereo) [IVb, [6α,10bβ]-1,2,3,5,6,10b-Hexahydro-10b-methyl-6-phenylpyrrolo[2,1-a]isoquinoline] | 9.2 mg/kg | 3.8 mg/kg | 
5 | C[C@]12CCCN1C[C@@H](c1ccc(F)cc1)c1ccc(F)cc12 (relative stereo) [L, 9-Fluoro-6α-(4-fluorophenyl)-1,2,3,5,6,10b-hexahydro-10bβ-methylpyrrolo[2,1-a]isoquinoline] | 6.1 mg/kg | 5.6 mg/kg | 
6 | Clc1ccccc1[C@@H]1CN2CCC[C@@H]2c2ccccc21 (relative stereo) [LI, [6α,10bβ]-6-(2-chlorophenyl)-1,2,3,5,6,10b-hexahydropyrrolo[2,1-a]isoquinoline] |  | 0.2 mg/kg | percent inhibition at a certain dose, EA (exploratory activity) (mice, i.p., @ 60 mg/kg): 37%
7 | c1ccc([C@H]2Cc3ccccc3[C@@H]3CCCN23)cc1 (relative stereo) [LII, 1,2,3,5,6,10bα-Hexahydro-5α-phenylpyrrolo[2,1-a]isoquinoline] |  |  | ED50 [3]: ~30 mg/kg; ED50 [4]: 32 mg/kg
8 | Oc1cccc([C@@H]2CN3CCC[C@H]3c3ccccc32)c1 (relative stereo) [XLIV, 3-(1,2,3,5,6,10bα-Hexahydropyrrolo[2,1-a]isoquinolin-6α-yl)phenol] |  | 3.1 mg/kg | percent inhibition at a certain dose, EA (exploratory activity) (mice, i.p., @ 30 mg/kg): 37%
9 | FC(F)(F)c1cccc([C@@H]2CN3CCC[C@@H]3c3ccccc32)c1 (relative stereo) [XLIX, 1,2,3,5,6,10bβ-Hexahydro-6α-[(3-trifluoromethyl)phenyl]-pyrrolo[2,1-a]isoquinoline] | 1.2 mg/kg | 0.43 mg/kg | 
10 | COc1ccc([C@@H]2CN3CCC[C@@H]3c3ccccc32)cc1OC (relative stereo) [XLV, 1,2,3,5,6,10bβ-Hexahydro-6α-(3,4-dimethoxyphenyl)pyrrolo[2,1-a]isoquinoline] |  | 0.14 mg/kg | percent inhibition at a certain dose, EA (exploratory activity) (mice, i.p., @ 30 mg/kg): 33%
11 | C[C@@]1(c2ccccc2)CN2CCC[C@H]2c2ccccc21 (relative stereo) [XLVI, 1,2,3,5,6,10bα-Hexahydro-6-methyl-6α-phenylpyrrolo[2,1-a]isoquinoline] | 22.5 mg/kg | 16 mg/kg | 
12 | COc1cccc2c1[C@H](c1ccccc1)CN1CCC[C@H]21 (relative stereo) [XLVII, 1,2,3,5,6,10bβ-Hexahydro-7-methoxy-6α-phenylpyrrolo[2,1-a]isoquinoline] |  |  | ED50 [3]: 2.8 mg/kg; ED50 [4]: ~6.5 mg/kg
13 | Nc1ccc([C@@H]2CN3CCC[C@H]3c3ccccc32)cc1 (relative stereo) [XLVIII, 4-(1,2,3,5,6,10bα-Hexahydropyrrolo[2,1-a]isoquinoline-6α-yl)benzenamine] | 1.4 mg/kg | 0.41 mg/kg | 
14 | Clc1ccc([C@@H]2CN3CCC[C@H]3c3ccccc32)cc1Cl (relative stereo) [XXIV, 6α-(3,4-Dichlorophenyl)-1,2,3,5,6,10bα-hexahydropyrrolo[2,1-a]isoquinoline] |  |  | ED50 [3]: ~40 mg/kg; ED50 [4]: 8 mg/kg
15 | Clc1ccc([C@@H]2CN3CCC[C@@H]3c3ccccc32)cc1 (relative stereo) [XXIX, [6α,10bβ]-6-(4-Chlorophenyl)-1,2,3,5,6,10b-hexahydropyrrolo[2,1-a]isoquinoline] |  |  | ED50 [3]: 0.27 mg/kg; ED50 [4]: 0.13 mg/kg
16 | C[C@@]1(c2ccccc2)CN2CCC[C@@H]2c2ccccc21 (relative stereo) [XXV, 1,2,3,5,6,10bβ-Hexahydro-6-methyl-6α-phenylpyrrolo[2,1-a]isoquinoline] | 27 mg/kg | 0.7 mg/kg | 

Row | SMILES | ED50 [1] | ED50 [2] | other results
17 | Oc1cc2c(cc1O)[C@H]1CCCN1C[C@H]2c1ccccc1 (relative stereo) [XXVI, [6α,10bβ]-1,2,3,5,6,10b-Hexahydro-8,9-dihydroxy-6-phenylpyrrolo[2,1-a]isoquinoline] | 0.87 mg/kg | 0.33 mg/kg | 
18 | COc1cc2c(cc1OC)[C@H]1CCCN1C[C@H]2c1ccccc1 (relative stereo) [XXVII, [6α,10bβ]-1,2,3,5,6,10b-Hexahydro-8,9-dimethoxy-6-phenylpyrrolo[2,1-a]isoquinoline] | 17 mg/kg | 7.2 mg/kg | 
19 | c1ccc2c(c1)[C@H](C1CCCCC1)CN1CCC[C@H]21 (relative stereo) [XXVIII, [6α,10β]-6-Cyclohexyl-1,2,3,5,6,10b-hexahydropyrrolo[2,1-a]isoquinoline] | 6.4 mg/kg | 1.9 mg/kg | 
20 | Clc1ccc([C@@H]2CN3CCC[C@H]3c3ccccc32)cc1 (relative stereo) [XXX, 6α-(4-Chlorophenyl)-1,2,3,5,6,10bα-hexahydropyrrolo[2,1-a]isoquinoline] |  |  | ED50 [3]: 8.1 mg/kg; ED50 [4]: 5.4 mg/kg
21 | COc1ccc([C@@H]2CN3CCC[C@H]3c3ccccc32)cc1 (relative stereo) [XXXI, 1,2,3,5,6,10bα-Hexahydro-6α-(4-methoxyphenyl)pyrrolo[2,1-a]isoquinoline] | ~60 mg/kg | 3 mg/kg | 
22 | Clc1ccc([C@@H]2CN3CCC[C@@H]3c3cc(Cl)ccc32)cc1 (relative stereo) [XXXII, [6α,10bβ]-9-Chloro-6-(4-chlorophenyl)-1,2,3,5,6,10b-hexahydropyrrolo[2,1-a]isoquinoline] | 37 mg/kg | 4 mg/kg | 
23 | COc1ccc([C@@H]2CN3CCC[C@@H]3c3ccccc32)cc1 (relative stereo) [XXXIII, 1,2,3,5,6,10bβ-Hexahydro-6α-(4-methoxyphenyl)pyrrolo[2,1-a]isoquinoline] | 7 mg/kg | 0.19 mg/kg | 
24 | COc1ccc2c(c1)[C@@H]1CCCN1C[C@H]2c1ccccc1 (relative stereo) [XXXIX, 1,2,3,5,6,10bα-Hexahydro-9-methoxy-6α-phenylpyrrolo[2,1-a]isoquionline] | ~40 mg/kg | 8 mg/kg | 
25 | Oc1ccc([C@@H]2CN3CCC[C@@H]3c3ccccc32)cc1O (relative stereo) [XXXV, 4-(1,2,3,5,6,10bβ-Hexahydropyrrolo[2,1-a]isoguinolin-6α-yl)benzene-1,2-diol] | 1.4 mg/kg | 0.13 mg/kg | 
26 | Oc1ccc([C@@H]2CN3CCC[C@H]3c3ccccc32)cc1O (relative stereo) [XXXVII, 4-(1,2,3,5,6,10bα-Hexahydropyrrolo[2,1-a]isoquinolin-6a-yl)-1,2-benzenediol] | 30 mg/kg | 1.8 mg/kg | 
27 | O=[N+]([O-])c1ccc([C@@H]2CN3CCC[C@@H]3c3ccccc32)cc1 (relative stereo) [XXXVIII, 1,2,3,5,6,10bβ-hexahydro-6α-(4-nitrophenyl)-pyrrolo[2,1-a]isoquinoline] | 0.51 mg/kg | 0.15 mg/kg | 
28 | c1ccc([C@@H]2CN3CCC[C@@H]3c3ccccc32)cc1 (relative stereo) [Xb, [6α,10bβ]-1,2,3,5,6,10b-Hexahydro-6-phenyl-pyrrolo[2,1-a]isoquinoline] | 0.34 mg/kg | 0.07 mg/kg | 
29 | OC1(c2ccccc2)CN2CCCC2c2ccccc21 (single isomer, unassigned) [XLIII, 1,2,3,5,6,10b-Hexahydro-6-phenylpyrrolo[2,1-a]isoquinolin-6-ol] |  |  | TBZ ED50, EA (exploratory activity) [5]: 33 mg/kg; TBZ ED50, Pt (reversal of ptosis) [6]: 5.0 mg/kg
30 | OC1(c2ccccc2)CN2CCCC2c2ccccc21 (single isomer, unassigned) [XXXIV, 1,2,3,5,6,10b-Hexahydro-6-phenylpyrrolo[2,1-a]isoquinolin-6-ol] |  |  | TBZ ED50, EA (exploratory activity) [5]: 8.4 mg/kg; TBZ ED50, Pt (reversal of ptosis) [6]: 1.6 mg/kg
31 | FC1(c2ccccc2)CN2CCCC2c2ccccc21 (stereo not drawn) [LIII, 6α-Fluoro-1,2,3,5,6,10bα-hexahydro-6-phenylpyrrolo[2,1-a]isoquinoline] |  |  | ED50 [4]: 1.2 mg/kg; percent inhibition at a certain dose, EA (exploratory activity) (mice, i.p., @ 40 mg/kg): 60%
32 | Oc1ccc(C2CN3CCCC3c3ccccc32)cc1 (stereo not drawn) [XXXVI, 4-(1,2,3,5,6,10bα-Hexahydropyrrolo[2,1-a]isoquinolin-6α-yl)phenol] |  |  | TBZ ED50, EA (exploratory activity) [5]: ca. 14 mg/kg; TBZ ED50, Pt (reversal of ptosis) [6]: 10 mg/kg
